Values quoted from earlier work in PubChem BioAssay AID1259409 (Chemical Carcinogenesis Research Information System (CCRIS), 2018).

System: rodent chemically induced tumor inhibition, incidence and multiplicity
Test: CCRIS tumor inhibitor studies
Conditions: Route [Inhibitor]: ORAL, Species: RAT, Strain/Sex: F344/MALE; for outcome: Dose [Carcinogen]: 0.1% IN DRINKING WATER FOR 1 WK (STUDY DURATION: 32 WK)

SMILES: COc1cc(/C=C/C(=O)O[C@H]2CC[C@]34C[C@]35CC[C@]3(C)[C@@H]([C@H](C)CCC=C(C)C)CC[C@@]3(C)[C@@H]5CC[C@H]4C2(C)C)ccc1O
- outcome (Carcinogen: 2,2'-DIHYDROXY-DI-N-PROPYLNITROSAMINE [621-64-7], Dose [Inhibitor]: 0.04% IN DIET FOR 30 WK BEGINNING 1 WK POST LAST CARCINOGEN DOSE (STUDY DURATION: 32 WK), Target Tissue: Type of Lesion: LUNG: CARCINOMA, Promoter: NONE): 0/20 (0%), 0/20 (0%), 0%, not significant
- outcome (Carcinogen: 2,2'-DIHYDROXY-DI-N-PROPYLNITROSAMINE [621-64-7], Dose [Inhibitor]: 0.2% IN DIET FOR 30 WK BEGINNING 1 WK POST LAST CARCINOGEN DOSE (STUDY DURATION: 32 WK), Target Tissue: Type of Lesion: LUNG: CARCINOMA, Promoter: NONE): 0/20 (0%), 2/20 (10%), -100%, not significant
- outcome (Carcinogen: 2,2'-DIHYDROXY-DI-N-PROPYLNITROSAMINE [621-64-7], Dose [Inhibitor]: 1% IN DIET FOR 30 WK BEGINNING 1 WK POST LAST CARCINOGEN DOSE (STUDY DURATION: 32 WK), Target Tissue: Type of Lesion: LUNG: CARCINOMA, Promoter: NONE): 0/20 (0%), 10/20 (50%), -100%, p<0.001
- tumour outcome (control, treated, inhibition, significance) (Carcinogen: 2,2'-DIHYDROXY-DI-N-PROPYLNITROSAMINE [621-64-7], N-ETHYL-N-HYDROXYETHYLNIATROSAMINE [13147-25-6], 3,2'-DIMETHYL-4-AMINO, Carcinogen: 2,2'-DIHYDROXY-DI-N-PROPYLNITROSAMINE [621-64-7], N-ETHYL-N-HYDROXYETHYLNIATROSAMINE [13147-25-6], 3,2'-DIMETHYL-4-AMINO, Dose [Inhibitor]: 1% IN DIET FOR 32 WK BEGINNING 1 WK POST LAST CARCINOGEN DOSE (STUDY DURATION: 32 WK), Target Tissue: Type of Lesion: LIVER: ADENOMA, Dose [Carcinogen]: 1000 MG/KG BW DHPN IP 2X/3 WK, 1500 MG/KG BW EHEN IP 2X/3 WK, 75 MG/KG BW DMAB SC 3X/3 WK;, Dose [Carcinogen]: 1000 MG/KG BW DHPN IP 2X/3 WK, 1500 MG/KG BW EHEN IP 2X/3 WK, 75 MG/KG BW DMAB SC 3X/3 WK;, Promoter: NONE): 9/14 (64%), 5/13 (38%), 41%, p<0.05
- tumour outcome (control, treated, inhibition, significance) (Carcinogen: 2,2'-DIHYDROXY-DI-N-PROPYLNITROSAMINE [621-64-7], N-ETHYL-N-HYDROXYETHYLNIATROSAMINE [13147-25-6], 3,2'-DIMETHYL-4-AMINO, Carcinogen: 2,2'-DIHYDROXY-DI-N-PROPYLNITROSAMINE [621-64-7], N-ETHYL-N-HYDROXYETHYLNIATROSAMINE [13147-25-6], 3,2'-DIMETHYL-4-AMINO, Dose [Inhibitor]: 1% IN DIET FOR 32 WK BEGINNING 1 WK POST LAST CARCINOGEN DOSE (STUDY DURATION: 32 WK), Target Tissue: Type of Lesion: LIVER: CARCINOMA, Dose [Carcinogen]: 1000 MG/KG BW DHPN IP 2X/3 WK, 1500 MG/KG BW EHEN IP 2X/3 WK, 75 MG/KG BW DMAB SC 3X/3 WK;, Dose [Carcinogen]: 1000 MG/KG BW DHPN IP 2X/3 WK, 1500 MG/KG BW EHEN IP 2X/3 WK, 75 MG/KG BW DMAB SC 3X/3 WK;, Promoter: NONE): 6/14 (43%), 3/13 (23%), 47%, not significant
- tumour outcome (control, treated, inhibition, significance) (Carcinogen: 2,2'-DIHYDROXY-DI-N-PROPYLNITROSAMINE [621-64-7], N-ETHYL-N-HYDROXYETHYLNIATROSAMINE [13147-25-6], 3,2'-DIMETHYL-4-AMINO, Carcinogen: 2,2'-DIHYDROXY-DI-N-PROPYLNITROSAMINE [621-64-7], N-ETHYL-N-HYDROXYETHYLNIATROSAMINE [13147-25-6], 3,2'-DIMETHYL-4-AMINO, Dose [Inhibitor]: 1% IN DIET FOR 32 WK BEGINNING 1 WK POST LAST CARCINOGEN DOSE (STUDY DURATION: 32 WK), Target Tissue: Type of Lesion: LUNG: ADENOMA, Dose [Carcinogen]: 1000 MG/KG BW DHPN IP 2X/3 WK, 1500 MG/KG BW EHEN IP 2X/3 WK, 75 MG/KG BW DMAB SC 3X/3 WK;, Dose [Carcinogen]: 1000 MG/KG BW DHPN IP 2X/3 WK, 1500 MG/KG BW EHEN IP 2X/3 WK, 75 MG/KG BW DMAB SC 3X/3 WK;, Promoter: NONE): 7/14 (50%), 11/13 (85%), -70%, not significant
- tumour outcome (control, treated, inhibition, significance) (Carcinogen: 2,2'-DIHYDROXY-DI-N-PROPYLNITROSAMINE [621-64-7], N-ETHYL-N-HYDROXYETHYLNIATROSAMINE [13147-25-6], 3,2'-DIMETHYL-4-AMINO, Carcinogen: 2,2'-DIHYDROXY-DI-N-PROPYLNITROSAMINE [621-64-7], N-ETHYL-N-HYDROXYETHYLNIATROSAMINE [13147-25-6], 3,2'-DIMETHYL-4-AMINO, Dose [Inhibitor]: 1% IN DIET FOR 32 WK BEGINNING 1 WK POST LAST CARCINOGEN DOSE (STUDY DURATION: 32 WK), Target Tissue: Type of Lesion: LUNG: CARCINOMA, Dose [Carcinogen]: 1000 MG/KG BW DHPN IP 2X/3 WK, 1500 MG/KG BW EHEN IP 2X/3 WK, 75 MG/KG BW DMAB SC 3X/3 WK;, Dose [Carcinogen]: 1000 MG/KG BW DHPN IP 2X/3 WK, 1500 MG/KG BW EHEN IP 2X/3 WK, 75 MG/KG BW DMAB SC 3X/3 WK;, Promoter: NONE): 1/14 (8%), 7/13 (54%), -575%, p<0.05
- tumour outcome (control, treated, inhibition, significance) (Carcinogen: 2,2'-DIHYDROXY-DI-N-PROPYLNITROSAMINE, 53609-64-6, N-ETHYL-N-HYDROXYETHYL- NITROSAMINE, 13147-25-6, 3,2'-DIMETHYL-4-, Carcinogen: 2,2'-DIHYDROXY-DI-N-PROPYLNITROSAMINE, 53609-64-6, N-ETHYL-N-HYDROXYETHYL- NITROSAMINE, 13147-25-6, 3,2'-DIMETHYL-4-, Dose [Inhibitor]: 0, 1% IN DIET BEGINNING 1 WK POST LAST CARCINOGEN DOSE AND CONTINUING FOR 32 WK (STUDY DURATION: 36 WK), Target Tissue: Type of Lesion: LARGE INTESTINE: ADENOMA, Dose [Carcinogen]: 1000 MG/KG IP DHPN 2X, 1500 MG/KG GAV EHEN 2X AND 75 MG/KG SC DMAB 3X GIVEN OVER THE INITIAL 3 WK PERIOD AT 3-4 D INTERV, Promoter: NONE USED): 7/14 (50%), 5/13 (38%), 24%, not significant
- tumour outcome (control, treated, inhibition, significance) (Carcinogen: 2,2'-DIHYDROXY-DI-N-PROPYLNITROSAMINE, 53609-64-6, N-ETHYL-N-HYDROXYETHYL- NITROSAMINE, 13147-25-6, 3,2'-DIMETHYL-4-, Carcinogen: 2,2'-DIHYDROXY-DI-N-PROPYLNITROSAMINE, 53609-64-6, N-ETHYL-N-HYDROXYETHYL- NITROSAMINE, 13147-25-6, 3,2'-DIMETHYL-4-, Dose [Inhibitor]: 0, 1% IN DIET BEGINNING 1 WK POST LAST CARCINOGEN DOSE AND CONTINUING FOR 32 WK (STUDY DURATION: 36 WK), Target Tissue: Type of Lesion: LARGE INTESTINE: CARCINOMA, Dose [Carcinogen]: 1000 MG/KG/ IP DHPN 2X, 1500 MG/KG GAV EHEN 2X 75 MG/KG SC DMAB 3X GIVEN OVER THE INITIAL 3 WK PERIOD AT 3-4 D INTERVALS, Promoter: NONE USED): 3/14 (21%), 6/13 (46%), -119%, not calculated
